Source: article PMC4434572, “Identification of novel drugs to target dormant micrometastases” (BMC Cancer, 2015)
“Also recorded” adds a separate entry of the source. Where two headings read alike, the source gives them in different places.

Experiments:
MDA-MB-435-GFP cells = assay: Flank xenograft model of ECM-suppressed cells co-injected with SISgel; format: in vivo, nu/nu mice; settings: 75 mg/kg twice weekly; 6 flanks
Description: The efficacy of DT320 was assessed using a flank xenograft model of ECM-suppressed cancer cells that we developed, as well as an orthotopic model of “triple-negative” breast cancer. All animal protocols were reviewed and approved by the OUHSC Institutional Animal Care and Use Committee according to criteria established by the NIH Office of Laboratory Animal Welfare, and animals were housed 5 per cage with enrichment (tubes) and wood chips in the AALAC-accredited OUHSC Animal Facility with a 12 h light/dark cycle. Animals had access to water and food ad libatum. Animals were monitored daily by trained facility personnel. In the flank model, GFP-labeled cells were co-injected with SISgel, which produces a suppressed, normalized phenotype that persists after the SISgel is resorbed, but which can re-emerge into active tumor growth after 30–60 days. Animals were all female nu/nu mice (NCI National Laboratory Frederick/Charles River animal production program). An optimized number of 5 × 10^5 GFP-labeled MDA-MB-435 cells in 100 μL DMEM medium, without additives, were mixed with 100 μL of SISgel and were kept on ice until injection to prevent polymerization of the SISgel. […] The cells injected into the flanks remained as a non-growing spot, as assessed by fluorometry of the spots and the lack of mitoses seen in tissue sections, for about 3–5 weeks before some began resuming malignant growth. […]

Capan-1 (pancreatic) = assay: Proliferation EC50 on SISgel vs monolayer; format: cell-based; settings: Homo sapiens, n = 6-8
Text: (§1) The libraries were obtained from the NCI (Diversity Library I) comprised of 2,918 compounds and a 10,000 compound diversity library from ChemBridge, Inc. (DiverSet-EXP). The NCI library is no longer available in the form used here, but how it was constructed is described (http://dtp.nci.nih.gov/branches/dscb/diversity_explanation.html). The ChemBridge library is a subset (Set Code NM1024) of the full 50,000 compound library (http://www.chembridge.com/screening_libraries/diversity_libraries/). Compounds were diluted to 100 μM before use. SISgel was prepared as described previously from powdered porcine small intestine submucosa obtained from Cook Biotech (W. Lafayette, IN). It is a natural product that is used extensively in tissue engineering as a bioscaffold. J82 bladder cancer cells and other cell lines were obtained from the ATCC (Bethesda, MD). The basic principle is that cells grown on any ECM are, in general, expected to show higher resistance to anticancer compounds than when grown on plastic. Therefore, compounds that show a higher activity toward cancer cells on a normal ECM than on a plastic surface would be candidates to target suppressed, micrometastatic cells. Efficacy in vitro was assessed by plating 30,000 cells in 50 μL of high glucose DMEM with penicillin-streptomycin and 10 % fetal calf serum on SISgel in a 96-well plate containing 50 μL of gelled SISgel per well. Cells were allowed to attach and assume the SISgel phenotype for 48 h. A matching plate without SISgel was prepared 24 h later by pipetting 3,000 cells in 100 μL of high glucose DMEM with penicillin-streptomycin and 10 % fetal calf serum into each well of 96 well plate. The cells were allowed to attach and grow for 24 h. These numbers of cells gave approximately equal replication rates at the time drug was added for cells grown on the plastic surface or SISgel as determined by the fraction of S-phase cells identified by flow cytometry. The cells were exposed to drug in fresh medium for 48 h, at which time the cell number was determined using the CFDA-AM cellular esterase proliferation assay (cat. #C1354, Life Technologies). For screening the results are reported as the ratio of cell count of cells on the plastic surface to the cell count on SISgel. An initial difference of 1.5 fold identified potential hits. All potential hits were confirmed in triplicate. Those compounds that replicated were confirmed by a full dose–response study yielding an EC50 using five wells per drug concentration. Data were analyzed using nonlinear regression to a sigmoid curve with Prism 4 (GraphPad Software, Inc., LaJolla, CA). Potential hits that were confirmed by dose–response using J82 were also tested with MDA-MB-435 breast cancer, PC-3 metastatic prostate cancer, Capan1 pancreatic cancer and the J82 bladder cancer cell lines.

MDA-MB-435 cells = assay: Western blot of protein levels after treatment; format: cell-based
Description: Protein content of selected proteins identified by reversed phase protein array (see supplementary materials) as being involved mechanistically in the response to DT320 was assayed by Western blot as described using the following antibodies. The following antibodies were purchased from Cell Signaling Technology (Beverly, MA) and diluted per manufacturer’s directions: Rabbit mAb Anti-Phospho-AKT (Ser473) (D9E) XP® #4060, Rabbit mAb anti-p38 MAPK (D13E1) XP® #8690, Mouse mAb anti-Phospho-SAPK/JNK (Thr183/Tyr185) (G9) #9255, Rabbit mAb anti-Phospho-CHK1 (Ser345) (133D3) #2348, Rabbit polyclonal anti-Phospho-CHK2 (Thr68) Antibody #2661, Rabbit polyclonal anti-BAX Antibody #2772, Rabbit polyclonal anti-Vinculin Antibody #4650, Mouse mAb anti-Cyclin D1 (DCS6) #2926, Rabbit mAb anti-Cyclin E2 (D52F9) b #3741, […], Mouse mAb anti-Cyclin B1 (V152) #4135, Rabbit mAb anti-cleaved PARP (Asp214) (D64E10) XP® #5625, Rabbit mAb anti-cleaved Caspase-3 (Asp175) (5A1E) #9654, Rabbit mAb anti-Nanog (D73G4), #4903; Rabbit mAb anti-Oct4 (C52G3) #2890; and Rabbit mAb anti-Sox2 (D6D9) #3579. Specificity of each antibody is illustrated on the company’s web page. For negative controls, pre-immune rabbit IgG was used. No signal was detected in the control IgG samples. No intensities or contrast were modified, but the appropriate bands were cut out using PhotoShop to prepare composite gel images.
To elucidate the mechanism of DT310 and DT320, cell cycle analysis and Western blotting was performed. The proteins for Western blot were selected from preliminary results using reverse phase protein array (RPPA) for DT320 and DT321 treated MDA-MB-435 and T24 cells. […] Proteins within these clusters showing the largest differences in protein expression and that were related to known anticancer drug action were confirmed by Western blot. Docetaxel was used as a positive control because it is known to induce a cell cycle arrest and apoptosis signature.

4T1 Luc2-GFP cells = assay: Orthotopic 4T1 syngeneic model of triple-negative breast cancer with natural lung metastasis; format: in vivo, BALB/c mice
Description: 4T1 Luc2-GFP cells (PerkinElmer, Waltham, MA) were cultured in DMEM high glucose media with 2 mM pyruvate, 2 mM glutamine, 2 % Pen/Strep and 10 % Cosmic Calf Serum (Mediatech, Manassas, VA). To prepare cells for injection they were removed from flasks, counted using the TC10 counting system (BioRad, Hercules, CA) and checked for viability. Cells were then washed with PBS, pelleted and taken up at a concentration of 75,000 cells/ml; 100 μl of cell suspension (7,500 cells) was injected subcutaneously (bevel side up) into mammary fat pad #4 of 8 weeks old female BALB/c mice (NCI National Laboratory Frederick/Charles River animal production program). All animals were weighed and tumors were measured using calipers three times weekly. Beginning one week after implantation, which is when micrometastatic cells begin to arrive in the lungs, animals were treated three times per week with intraperitoneal DT310 or DT320 at their NOAEL dose of 75 mg/kg three times week dissolved in saline or by osmotic pump. The osmotic pumps (Alzet #2004) delivered an NOAEL dose of 23.4 and 26.7 μg/h of DT310 and DT320, respectively, for 4 weeks and were implanted as directed subcutaneously posterior to scapulae. Docetaxel was delivered once weekly intraperitoneally at its MTD of 15 mg/kg and doxorubicin delivered once weekly at its MTD of 1 mg/kg in 5 % N-Methyl-2-pyrrolidone, 5 % Solutol HS, and 90 % saline. GFP positive cells were imaged with excitation of GFP emission using a Leica Model Z16 APO fluorescence microscope equipped for a wide field, a large depth of field and 0.57–9.2X zoom capability. GFP-positive objects were counted and scored as to whether they were […], clumps of less than ten cells without a visible vasculature, as determined by co-injection of tetramethylrhodamine labeled dextran (2 million MW).

in vivo = settings: BALB/c, mouse, ip
J82 (bladder) = assay: Proliferation EC50 on SISgel vs monolayer; format: cell-based; settings: n = 6-8
Text: as §1

[1] = tested on: protein tyrosine phosphatase (PTP); set-up: method as in PMID 9575179; settings: cited from earlier work
[2] = tested on: cancer cells on SISgel or plastic; assay: Activity of leads and analogs on cancer cells grown on plastic vs SISgel (cell line not stated); format: cell-based
Description: The NCI library is no longer available in the form used here, but how it was constructed is described (http://dtp.nci.nih.gov/branches/dscb/diversity_explanation.html). The ChemBridge library is a subset (Set Code NM1024) of the full 50,000 compound library (http://www.chembridge.com/screening_libraries/diversity_libraries/). Compounds were diluted to 100 μM before use. SISgel was prepared as described previously from powdered porcine small intestine submucosa obtained from Cook Biotech (W. Lafayette, IN). It is a natural product that is used extensively in tissue engineering as a bioscaffold. J82 bladder cancer cells and other cell lines were obtained from the ATCC (Bethesda, MD). […] Efficacy in vitro was assessed by plating 30,000 cells in 50 μL of high glucose DMEM with penicillin-streptomycin and 10 % fetal calf serum on SISgel in a 96-well plate containing 50 μL of gelled SISgel per well. Cells were allowed to attach and assume the SISgel phenotype for 48 h. A matching plate without SISgel was prepared 24 h later by pipetting 3,000 cells in 100 μL of high glucose DMEM with penicillin-streptomycin and 10 % fetal calf serum into each well of 96 well plate. The cells were allowed to attach and grow for 24 h. […] The cells were exposed to drug in fresh medium for 48 h, at which time the cell number was determined using the CFDA-AM cellular esterase proliferation assay (cat. #C1354, Life Technologies). For screening the results are reported as the ratio of cell count of cells on the plastic surface to the cell count on SISgel. An initial difference of 1.5 fold identified potential hits. All potential hits were confirmed in triplicate. […] Data were analyzed using nonlinear regression to a sigmoid curve with Prism 4 (GraphPad Software, Inc., LaJolla, CA). […]

Nc1ccn([C@@H]2O[C@H](CO)[C@@H](O)C2(F)F)c(=O)n1 [gemcitabine, reference compound]
response of suppressed flank xenografts (MDA-MB-435-GFP cells): no response in all six flank xenografts; also recorded: remained present
EC50 (Capan-1 (pancreatic); Capan-1 monolayer, read-out: EC50 Monolayer): 78.2 ± 9.8 µM
EC50 (Capan-1 (pancreatic); Capan-1 on SISgel, read-out: EC50 SISgel): 83.1 ± 10.7 µM

CC(=O)O[C@@]12CO[C@@H]1C[C@H](O)[C@@]1(C)C(=O)[C@H](O)C3=C(C)[C@@H](OC(=O)[C@H](O)[C@@H](NC(=O)OC(C)(C)C)c4ccccc4)C[C@@](O)([C@@H](OC(=O)c4ccccc4)[C@H]21)C3(C)C [docetaxel]
CHK1 expression (MDA-MB-435 cells): neither of the DT compounds nor docetaxel induced CHK1
Cyclin A1 (CCNA1) expression (MDA-MB-435 cells): sharply down-regulate
Cyclin D1 (CCND1) expression (MDA-MB-435 cells): down-regulated
cyclin B1 (CCNB1) expression (MDA-MB-435 cells): down-regulated
pSAP/JNK expression (MDA-MB-435 cells): not
pAKT expression (MDA-MB-435 cells; 24 h): did not
primary tumor growth (4T1 Luc2-GFP cells; administered i.p. at MTD): little effect
number of large multicellular micrometastases and vascularized macrometastases to the lung (4T1 Luc2-GFP cells; i.p. or osmotic pump): only minimal effects
MTD (in vivo): 15 mg/kg

N.N.[Cl][Pt][Cl] [cisplatin, reference compound]
EC50 (J82 (bladder); J82 monolayer, read-out: EC50 Monolayer): 102 ± 10.2 µM
EC50 (J82 (bladder); J82 on SISgel, read-out: EC50 SISgel): > 300 µM

Cc1ccc(C(=O)Nc2ccc(S(=O)(=O)O)c3cc(S(=O)(=O)O)cc(S(=O)(=O)O)c23)cc1NC(=O)c1cccc(NC(=O)Nc2cccc(C(=O)Nc3cc(C(=O)Nc4ccc(S(=O)(=O)O)c5cc(S(=O)(=O)O)cc(S(=O)(=O)O)c45)ccc3C)c2)c1 [Suramin, reference compound]
PTP inhibition [1]: potent
SR ([2]; ratio IC50-p/IC50-S): 1.4
IC50 ([2]; read-out: IC50-S): 226 µM
IC50 ([2]; read-out: IC50-p): 321 µM
